Drawing on patent publication EP1377579B1 (Aventis Pharmaceuticals Inc., priority 2000, dated 2002), this text covers IC50 for eleven compounds.

One test addresses cdk4/cyclin D1 (Homo sapiens, UniProt P11802). Put plainly: Cyclin-dependent kinase assay, cdk4/cyclin D1. It counts as biochemical. Particulars: cyclin D1/cdk4; GST-pRb substrate, 10 µM ATP.
The next test has as its system MDA-MB-435. Nature of the test: In vitro proliferation assay (MTT), MDA-MB-435. The test is classed as cell-based, human. As to conditions: Homo sapiens. Put shortly:
(§1)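 Following 3 days of compound treatment, MTT was added and the dye dissolved in DMSO for 570 nm absorbance; IC50s derived from these raw readings. Seeding density 1000 to 2500 cells/well depending on line, with overnight recovery before dosing.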

For the next test, the system named is NCI-H460. Nature of the test: In vitro proliferation assay (MTT), NCI-H460. It counts as cell-based. Particulars: Homo sapiens. As to the method:
(§2) The proliferation of tumor cells can be measured using a tetrazolium salt-based assay known as the MTT (3-[4,5-Dimethylthiazol-2-yl]-2,5-diphenyltetrazolium bromide) assay. The proliferation test is performed essentially as described by Carmichael et al., Cancer Res. 47: 936-942, 1987. For the assay, the cell lines are plated onto 96 well plates at 1000 to 2500 cells/well (depending on the properties of the individual cell lines), left to attach and recover overnight. […] After 3 days, the cells are incubated with MTT dye (3-[4,5-Dimethylthiazol-2-yl]-2,5-diphenyltetrazolium bromide, Sigma # M5655, 10 mg/ml in Hank's Buffered Saline) to estimate the amount of live cells remaining vs. concentration for the test compounds. Specifically, MTT solution is added to a final concentration of […] and the plates incubated at 37 C for 2 to 4 hr. The MTT and culture medium is then removed from the cultures and 200 µl of DMSO is added to solubilize the dye from the cell layer. The absorbance at 570 nm is determined for each culture using a Spectramax plate reader (Molecular Devices).
(§3) IC50s were determined from the raw data from either the MTT or SRB assays.
(§4) All of the cell lines were obtained from American Type Tissue Collection, with the ATCC accession number in parentheticals. MCF-7 and MDA-MB-231 cells were grown in improved minimum essential medium (Biofluids) without phenol red, supplemented with 5 % fetal bovine serum, 0.01 mg/ml gentamicin and 3 mM L-glutamine. All of the other cell lines were grown in RPMI 1640 medium (Life Technologies) supplemented with 5 % fetal bovine serum, 0.01 mg/ml gentamicin and 3 mM L-glutamine TABLE 3

A further test has as its system HL-60. Put plainly: In vitro proliferation assay (MTT), HL-60. It counts as cell-based. Particulars: Homo sapiens. As to the method: as §2, §3, §4
In the next test the test system is Jurkat. Nature of the test: In vitro proliferation assay (MTT), Jurkat. It counts as cell-based. As to conditions: Homo sapiens, read-out: Jurkat Leuk. (IC50 µM). As to the method: as §2, §3, §4
Another test concerns PC-3. Put plainly: In vitro proliferation assay (MTT), PC-3. The test is classed as cell-based, human. Particulars: Homo sapiens. Put shortly:
as §1

For another test, the system named is Colo-205. Put plainly: In vitro proliferation assay (MTT), Colo-205. The test is classed as cell-based. As to conditions: Homo sapiens. Here is the method: as §2, §3
The next test concerns the target cdk1/cyclin B (Homo sapiens, UniProt P06493). Nature of the test: Cyclin-dependent kinase assay, cdk1/cyclin B. Particulars: CDK1 IC50, nM, Histone H1, 10 µM ATP.
For a further test, the target named is cdk2/cyclin E (Homo sapiens, UniProt P24941). Nature of the test: Cyclin-dependent kinase assay, cdk2/cyclin E. As to conditions: CDK2 IC50, nM, GST-pRb substrate, 10 µM ATP.
[1] abbreviates: MDA-MB-435, MTT assay, value (SD, n) where given, read-out: MB-435 Breast (IC50 µM).
Where [2] appears, read: NCI-H460, MTT assay, value (SD, n) where given, read-out: H-460 Lung (IC50 µM).
Where [3] appears, read: HL-60, MTT assay, value (SD, n) where given, read-out: HL-60 Leuk. (IC50 µM).
The mark [4] stands for this setting: MTT assay, value (SD, n) where given.
Where [5] appears, read: PC-3, MTT assay, value (SD, n) where given, read-out: PC-3 Prostate (IC50 µM).
The mark [6] stands for this setting: COLO 205, MTT assay, value (SD, n) where given, read-out: Colo-205 Colon (IC50 µM).

The structures appear in SMILES notation. Structures can show the parent of a compound that is named as a salt. Where two headings read alike, the source gives them in different places. A value given as a limit tells only on which side of the number the result lay.

Chain of cdk1/cyclin B (P06493 whole entry): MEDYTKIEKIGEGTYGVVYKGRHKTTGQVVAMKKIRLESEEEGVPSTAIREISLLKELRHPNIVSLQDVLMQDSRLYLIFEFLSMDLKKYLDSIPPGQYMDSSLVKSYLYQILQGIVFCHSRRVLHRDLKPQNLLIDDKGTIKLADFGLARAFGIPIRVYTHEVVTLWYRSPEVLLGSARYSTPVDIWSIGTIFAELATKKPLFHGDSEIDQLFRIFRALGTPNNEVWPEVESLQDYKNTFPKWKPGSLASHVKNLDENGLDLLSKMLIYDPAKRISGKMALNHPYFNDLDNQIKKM
Chain of cdk1/cyclin B (P14635 whole entry partner): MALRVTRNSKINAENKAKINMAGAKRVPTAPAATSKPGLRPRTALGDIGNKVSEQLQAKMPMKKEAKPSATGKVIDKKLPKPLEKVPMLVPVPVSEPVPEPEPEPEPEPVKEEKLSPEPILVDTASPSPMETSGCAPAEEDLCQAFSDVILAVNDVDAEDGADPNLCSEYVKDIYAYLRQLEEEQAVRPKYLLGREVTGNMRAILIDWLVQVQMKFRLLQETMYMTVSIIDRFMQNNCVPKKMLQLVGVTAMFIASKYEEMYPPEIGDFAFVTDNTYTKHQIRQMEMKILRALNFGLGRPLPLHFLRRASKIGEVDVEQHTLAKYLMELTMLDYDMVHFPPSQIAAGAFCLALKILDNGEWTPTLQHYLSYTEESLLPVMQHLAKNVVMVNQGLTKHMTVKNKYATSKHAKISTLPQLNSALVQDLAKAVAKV
Chain of cdk4/cyclin D1 (P11802 whole entry): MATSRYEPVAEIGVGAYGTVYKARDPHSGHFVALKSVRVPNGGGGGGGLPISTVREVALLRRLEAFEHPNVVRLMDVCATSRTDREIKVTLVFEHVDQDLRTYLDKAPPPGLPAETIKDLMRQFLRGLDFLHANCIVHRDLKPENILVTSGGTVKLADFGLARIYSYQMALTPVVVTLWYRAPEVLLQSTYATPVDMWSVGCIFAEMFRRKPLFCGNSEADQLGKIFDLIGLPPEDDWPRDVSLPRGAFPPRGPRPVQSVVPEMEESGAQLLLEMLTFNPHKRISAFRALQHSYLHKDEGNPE
Chain of cdk4/cyclin D1 (P24385 whole entry partner): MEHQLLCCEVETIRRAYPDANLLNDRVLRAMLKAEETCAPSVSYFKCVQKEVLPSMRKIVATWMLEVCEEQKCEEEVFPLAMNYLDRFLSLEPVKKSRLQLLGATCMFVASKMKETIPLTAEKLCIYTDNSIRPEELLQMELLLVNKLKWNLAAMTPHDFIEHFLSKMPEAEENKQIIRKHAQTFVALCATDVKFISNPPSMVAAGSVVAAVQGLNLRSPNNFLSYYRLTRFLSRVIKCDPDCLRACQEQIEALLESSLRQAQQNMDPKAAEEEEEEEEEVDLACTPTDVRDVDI

For the compound `N[C@H]1CC[C@H](Nc2nc(NC3CCN(C(=O)NC45CC6CC(CC(C6)C4)C5)CC3)c3ncn(C4CCCC4)c3n2)CC1` (relative stereo) [compound 181, trans-4-[2-(4-Amino-cyclohexylamino)-9-cyclopentyl-9H-purin-6-ylamino]-piperidine-1-carboxylic acid adamantan-1-ylamide dihydrochloride], the IC50 amounted to 1.3 µM at cdk4/cyclin D1; 0.24 µM with MDA-MB-435 (setting [1]); 0.29 µM in the test on NCI-H460 (setting [2]); 0.06 µM in the test on HL-60 (setting [3]); 0.33 µM in the test with Jurkat (setting [4]); 0.25 µM in the test on PC-3 (setting [5]). Moreover, the IC50 worked out at 0.04 µM in the test on Colo-205 (setting [6]), 67 nM at cdk1/cyclin B and 548 nM against cdk2/cyclin E.
In the case of `CCCCOC(=O)N1CCC(Nc2nc(N[C@H]3CC[C@H](N)CC3)nc3c2ncn3C2CCCC2)CC1` [compound 92, trans-4-[2-(4-Amino-cyclohexylamino)-9-cyclopentyl-9H-purin-6-ylamino]-piperidine-1-carboxylic acid butyl ester dihydrochloride], the concentration for half-maximal inhibition (IC50) on cdk4/cyclin D1 was 2.1 µM; with MDA-MB-435 (setting [1]), 0.33 µM; in the test on NCI-H460 (setting [2]) it was 0.2 µM; in the test on HL-60 (setting [3]) it was 0.07 µM; in the test with Jurkat (setting [4]) it was 0.25 µM; in the test with PC-3 (setting [5]) it was 0.2 µM. Besides, the 50% inhibitory concentration (IC50) in the test with Colo-205 (setting [6]) came to 0.2 µM; on cdk1/cyclin B it was 45 nM; at cdk2/cyclin E it was 18 nM.
`CCOC(=O)N1CCC(Nc2nc(N[C@H]3CC[C@H](N)CC3)nc3c2ncn3C2CCCC2)CC1` [compound 93, trans-4-[2-(4-Amino-cyclohexylamino)-9-cyclopentyl-9H-purin-6-ylamino]-piperidine-1-carboxylic acid ethyl ester dihydrochloride]: the IC50 worked out at 0.856 µM against cdk4/cyclin D1; 0.25 µM in the test on MDA-MB-435 (setting [1]); 0.2 µM in the test on NCI-H460 (setting [2]); 0.07 µM with HL-60 (setting [3]); 0.16 µM in the test with Jurkat (setting [4]); 0.26 µM with PC-3 (setting [5]). The IC50 with Colo-205 (setting [6]) is 0.18 µM; at cdk1/cyclin B it was 46 nM; on cdk2/cyclin E it was 5 nM.
`N[C@H]1CC[C@H](Nc2nc(NC3CCN(C(=O)OCc4ccc([N+](=O)[O-])cc4)CC3)c3ncn(C4CCCC4)c3n2)CC1` [compound 94, trans-4-[2-(4-Amino-cyclohexylamino)-9-cyclopentyl-9H-purin-6-ylamino]-piperidine-1-carboxylic acid 4-nitro-benzyl ester dihydrochloride]: the IC50 on cdk4/cyclin D1 turned out to be 0.827 µM; in the test with MDA-MB-435 (setting [1]) it was 0.14 µM; in the test with NCI-H460 (setting [2]), 0.14 µM; in the test on HL-60 (setting [3]), 0.06 µM; in the test with Jurkat (setting [4]), 0.18 µM; with PC-3 (setting [5]) it was 0.13 µM. The results for the IC50 in the test on Colo-205 (setting [6]), on cdk1/cyclin B and at cdk2/cyclin E were 0.07 µM, 27 nM and 69 nM, respectively.
Turning to `C=CCOC(=O)N1CCC(Nc2nc(N[C@H]3CC[C@H](N)CC3)nc3c2ncn3C2CCCC2)CC1` [compound 95, trans-4-[2-(4-Amino-cyclohexylamino)-9-cyclopentyl-9H-purin-6-ylamino]-piperidine-1-carboxylic acid allyl ester dihydrochloride], the IC50 on cdk4/cyclin D1 was found to be 0.526 µM; with MDA-MB-435 (setting [1]), 0.24 µM; with NCI-H460 (setting [2]), 0.2 µM; with HL-60 (setting [3]), 0.06 µM; in the test on Jurkat (setting [4]), 0.18 µM; in the test on PC-3 (setting [5]) it was 0.21 µM. Moreover, the IC50 in the test with Colo-205 (setting [6]) was found to be 0.1 µM; on cdk1/cyclin B, 75 nM; at cdk2/cyclin E it was 23 nM.
Turning to `N[C@H]1CC[C@H](Nc2nc(NC3CCN(C(=O)Oc4ccccc4[N+](=O)[O-])CC3)c3ncn(C4CCCC4)c3n2)CC1` [compound 99, trans-4-[2-(4-Amino-cyclohexylamino)-9-cyclopentyl-9H-purin-6-ylamino]-piperidine-1-carboxylic acid 2-nitro-phenyl ester dihydrochloride], the IC50 on cdk4/cyclin D1 was 1.52 µM; in the test on MDA-MB-435 (MDA-MB-435, read-out: MB-435 Breast (IC50 µM)), 0.12 µM; with NCI-H460 (NCI-H460, read-out: H-460 Lung (IC50 µM)), 0.16 µM; in the test on HL-60 (HL-60, read-out: HL-60 Leuk. (IC50 µM)) it was less than 0.02 µM; with Jurkat, 0.11 µM; with PC-3 (PC-3, read-out: PC-3 Prostate (IC50 µM)), 0.2 µM. In addition, the IC50 in the test with Colo-205 (COLO 205, read-out: Colo-205 Colon (IC50 µM)) worked out at 0.05 µM; against cdk1/cyclin B it was 33 nM; against cdk2/cyclin E, 9 nM.
In the case of `C=CCCOC(=O)N1CCC(Nc2nc(N[C@H]3CC[C@H](N)CC3)nc3c2ncn3C2CCCC2)CC1` [compound 100, trans-4-[2-(4-Amino-cyclohexylamino)-9-cyclopentyl-9H-purin-6-ylamino]-piperidine-1-carboxylic acid but-3-enyl ester dihydrochloride], the IC50 turned out to be 0.25 µM in the test with MDA-MB-435 (setting [1]); 0.17 µM in the test with NCI-H460 (setting [2]); 0.05 µM in the test with HL-60 (setting [3]); 0.19 µM with Jurkat (setting [4]); 0.22 µM in the test on PC-3 (setting [5]); 0.11 µM in the test on Colo-205 (setting [6]). Further, the IC50 is 60 nM against cdk1/cyclin B and 50 nM against cdk2/cyclin E.
In the case of `C#CCOC(=O)N1CCC(Nc2nc(N[C@H]3CC[C@H](N)CC3)nc3c2ncn3C2CCCC2)CC1` [compound 102, trans-4-[2-(4-Amino-cyclohexylamino)-9-cyclopentyl-9H-purin-6-ylamino]-piperidine-1-carboxylic acid prop-2-ynyl ester dihydrochloride], the IC50 was 0.926 µM at cdk4/cyclin D1; 0.19 µM with MDA-MB-435 (setting [1]); 0.2 µM in the test with NCI-H460 (setting [2]); less than 0.02 µM in the test with HL-60 (setting [3]); 0.11 µM in the test on Jurkat (setting [4]); 0.14 µM with PC-3 (setting [5]). Moreover, the IC50 is 0.14 µM in the test on Colo-205 (setting [6]), 31 nM at cdk1/cyclin B and 42 nM on cdk2/cyclin E.
Consider `N[C@H]1CC[C@H](Nc2nc(NC3CCN(S(=O)(=O)c4ccc([N+](=O)[O-])cc4)CC3)c3ncn(C4CCCC4)c3n2)CC1` [compound 120, trans-N^2-(4-Amino-cyclohexyl)-9-cyclopentyl-N^6-[1-(4-nitro-benzenesulfonyl)-piperidin-4-yl]-9H-purine-2,6-diamine dihydrochloride], for which the IC50 was 0.2 µM with MDA-MB-435 (setting [1]); 0.27 µM in the test on NCI-H460 (setting [2]); less than 0.02 µM in the test on HL-60 (setting [3]); 0.19 µM in the test on Jurkat (setting [4]); 0.22 µM in the test on PC-3 (setting [5]); 0.1 µM in the test with Colo-205 (setting [6]).
As for `N[C@H]1CC[C@H](Nc2nc(NC3CCN(S(=O)(=O)c4cccc5ccccc45)CC3)c3ncn(C4CCCC4)c3n2)CC1` [compound 123, trans-N^2-(4-Amino-cyclohexyl)-9-cyclopentyl-N^6-[1-(naphthalene-1-sulfonyl)-piperidin-4-yl]-9H-purine-2,6-diamine dihydrochloride], the IC50 on cdk4/cyclin D1 worked out at 0.049 µM; in the test on MDA-MB-435 (setting [1]), 0.26 µM; in the test on NCI-H460 (setting [2]), 0.29 µM; in the test with HL-60 (setting [3]) it was 0.15 µM; with Jurkat (setting [4]), 0.22 µM; in the test on PC-3 (setting [5]) it was 0.2 µM. For the same compound, the results for the IC50 in the test with Colo-205 (setting [6]), at cdk1/cyclin B and on cdk2/cyclin E were 0.07 µM, 62 nM and 54 nM, respectively.
As for `N[C@H]1CC[C@H](Nc2nc(NC3CCN(C(=O)Nc4ccc(F)cc4F)CC3)c3ncn(C4CCCC4)c3n2)CC1` [compound 166, trans-4-[2-(4-Amino-cyclohexylamino)-9-cyclopentyl-9H-purin-6-ylamino]-piperidine-1-carboxylic acid (2,4-difluoro-phenyl)-amide dihydrochloride], the IC50 in the test on MDA-MB-435 (setting [1]) amounted to 0.03 µM; in the test on NCI-H460 (setting [2]), 0.08 µM; in the test on HL-60 (setting [3]), 0.01 µM; in the test on Jurkat (setting [4]) it was 0.07 µM; with PC-3 (setting [5]), 0.06 µM; in the test on Colo-205 (setting [6]), 0.02 µM.

For orientation: IC50 means the concentration at which inhibition is half-maximal.
